Each structure is given as a SMILES string.

For this test, the target named is T1, human PRMT1 (Homo sapiens, UniProt Q99873).
T1 construct: GST-tagged PRMT1; made in house; host or cells: High Five insect cells (baculovirus, pFastBacI)
T1 sequence (Q99873 with tags, fused parts or gaps): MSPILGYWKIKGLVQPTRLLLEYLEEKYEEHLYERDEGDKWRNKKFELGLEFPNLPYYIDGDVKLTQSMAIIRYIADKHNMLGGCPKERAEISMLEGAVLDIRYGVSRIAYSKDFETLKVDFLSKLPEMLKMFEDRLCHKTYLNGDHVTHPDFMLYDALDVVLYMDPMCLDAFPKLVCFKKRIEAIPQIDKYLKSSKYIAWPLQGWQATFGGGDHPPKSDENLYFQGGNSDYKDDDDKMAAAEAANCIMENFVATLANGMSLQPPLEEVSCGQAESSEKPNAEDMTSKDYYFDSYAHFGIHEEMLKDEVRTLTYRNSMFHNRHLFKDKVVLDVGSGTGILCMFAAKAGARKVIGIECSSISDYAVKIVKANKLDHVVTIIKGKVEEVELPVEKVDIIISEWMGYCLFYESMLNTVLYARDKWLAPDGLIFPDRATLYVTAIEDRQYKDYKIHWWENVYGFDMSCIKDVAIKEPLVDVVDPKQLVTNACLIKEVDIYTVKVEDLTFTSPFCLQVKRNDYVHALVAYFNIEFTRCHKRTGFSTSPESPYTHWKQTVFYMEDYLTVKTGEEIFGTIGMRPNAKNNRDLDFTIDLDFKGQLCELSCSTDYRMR
The test can be described thus: PRMT1 Biochemical Assay. The following applies: peptide substrate, 3H-SAM Flashplate assay. The text has this:
S-adenosylmethionine (SAM), S-adenosylhomocysteine (SAH), bicine, Tween20, dimethylsulfoxide (DMSO), bovine skin gelatin (BSG), and Tris(2-carboxyethyl)phosphine hydrochloride solution (TCEP) were purchased from Sigma-Aldrich at the highest level of purity possible. ^3H-SAM was purchase from American Radiolabeled Chemicals with a specific activity of 80 Ci/mmol. 384-well streptavidin Flashplates were purchased from PerkinElmer.
Peptide representative of human histone H4 residues 36-50 was synthesized with an N-terminal linker-affinity tag motif and a C-terminal amide cap by 21st Century Biochemicals. The peptide was purified by high-performance liquid chromatography (HPLC) to greater than 95% purity and confirmed by liquid chromatography mass spectrometry (LC-MS). The sequence was Biot-Ahx-[…]-amide (SEQ ID NO.: 1).
Full-length human PRMT1 isoform 1 (NM_001536.5) transcript clone was amplified from an HEK 293 cDNA library, incorporating flanking 5′ sequence encoding a FLAG tag ([…]) (SEQ ID NO.:2) fused directly to Met 1 of PRMT1. The amplified gene was subcloned into pFastBacI (Life Technologies) modified to encode an N-terminal GST tag and a TEV cleavage sequence ([…] […] […] […])(SEQ ID NO.:3) fused to Asp of the Flag tag of PRMT1.
Recombinant baculovirus were generated according to Bac-to-Bac kit instructions (Life Technologies). Protein over-expression was accomplished by infecting exponentially growing High Five insect cell culture at 1.5×10^6 cell/ml with 1:100 ratio of virus. Infections were carried out at 27° C. for 48 hours, harvested by centrifugation, and stored at −80° C. for purification.
GST-tagged PRMT1 was eluted with 50 mM Tris, 2 mM glutathione, pH 7.8, dialysed in buffer A and concentrated to 1 mg/mL. The purity of recovered protein was 73%. Reference: Wasilko, D. J. and S. E. Lee: “TIPS: titerless infected-cells preservation and scale-up” Bioprocess J., 5 (2006), pp. 29-32.
General Procedure for PRMT1 Enzyme Assays on Peptide Substrates.
The assays were all performed in a buffer consisting of 20 mM Bicine (pH=7.6), 1 mM TCEP, 0.005% BSG, and 0.002% Tween 20, prepared on the day of use. Compounds in 100% DMSO (1 ul) were spotted into a polypropylene 384-well V-bottom plates (Greiner) using a Platemate Plus outfitted with a 384-channel head (Thermo Scientific). DMSO (1 ul) was added to Columns 11, 12, 23, 24, rows A-H for the maximum signal control and 1 ul of SAH, a known product and inhibitor of PRMT1, was added to columns 11, 12, 23, 24, rows I-P for the minimum signal control. A cocktail (40 ul) containing the PRMT1 enzyme was added by Multidrop Combi (Thermo-Fisher). The compounds were allowed to incubate with PRMT1 for 30 min at room temperature, then a cocktail (10 ul) containing SAM and peptide was added to initiate the reaction (final volume=51 ul). The final concentrations of the components were as follows: PRMT1 was 0.5 nM, ^3H-SAM was 200 nM, non-radiolabeled SAM was 1.5 uM, peptide was 20 nM, SAH in the minimum signal control wells was 1 mM, and the DMSO concentration was 2%. The assays were stopped by the addition of non-radiolabeled SAM (10 ul) to a final concentration of 300 uM, which dilutes the ^3H-SAM to a level where its incorporation into the peptide substrate is no longer detectable. 50 ul of the reaction in the 384-well polypropylene plate was then transferred to a 384-well Flashplate and the biotinylated peptides were allowed to bind to the streptavidin surface for at least 1 hour before being washed once with 0.1% Tween20 in a Biotek ELx405 plate washer. The plates were then read in a PerkinElmer TopCount plate reader to measure the quantity of ^3H-labeled peptide bound to the Flashplate surface, measured as disintegrations per minute (dpm) or alternatively, referred to as counts per minute (cpm).
Where dpm=disintegrations per minute, cmpd=signal in assay well, and min and max are the respective minimum and maximum signal controls. […]
What is called IC50 is the midpoint of a concentration-inhibition curve. Higher therefore signals weaker potency. Molecule `CN(CCN)Cc1c[nH]nc1-c1cncc(S(C)(=O)=O)c1` [Compound 4] showed an IC50 of 1010 to 3000 nM. On to `COc1ccc(-c2n[nH]cc2CN(C)CCN)cn1` [Compound 5], for which the IC50 fell in the range of 101 to 1000 nM. `Cc1cncc(-c2n[nH]cc2CN(C)CCN)c1` [Compound 6] showed an IC50 not below 10000 nM. In the case of `CN(CCN)Cc1c[nH]nc1-c1cncc(F)c1` [Compound 7], the IC50 was not above 100 nM.

Regarding `CN(CCN)Cc1c[nH]nc1-c1cccnc1` [Compound 8], the IC50 was in the range of 101 to 1000 nM.

Take `CN(CCN)Cc1c[nH]nc1-c1ccncc1` [Compound 9]: the IC50 is not above 100 nM. Take `Cc1cc(-c2n[nH]cc2CN(C)CCN)cnc1Cl` [Compound 10]: the IC50 is not above 100 nM. As for `COc1cc(-c2n[nH]cc2CN(C)CCN)ccn1` [Compound 11], the IC50 was in the range of 101 to 1000 nM. Regarding `COc1cc(-c2n[nH]cc2CN(C)CCN)c(Cl)cn1` [Compound 12], the IC50 lay in the range of 1010 to 3000 nM. `CN(CCN)Cc1c[nH]nc1-c1ccc(C(F)(F)F)nc1` [Compound 13, N^1-methyl-N^1-((3-(6-(trifluoromethyl)pyridin-3-yl)-1H-pyrazol-4-yl)methyl)ethane-1,2-diamine] returned an IC50 not above 100 nM.

`COc1ncc(Cl)cc1-c1n[nH]cc1CN(C)CCN` [Compound 14] had an IC50 of 1010 to 3000 nM. Consider `COc1ncccc1-c1n[nH]cc1CN(C)CCN` [Compound 15], for which the IC50 lay in the range of 101 to 1000 nM. On to `COc1ccncc1-c1n[nH]cc1CN(C)CCN` [Compound 16], for which the IC50 was in the range of 101 to 1000 nM. Then `Cc1ccncc1-c1n[nH]cc1CN(C)CCN` [Compound 17], with 101 to 1000 nM; and `CN(CCN)Cc1c[nH]nc1-c1cncc(C#N)c1` [Compound 18], with 101 to 1000 nM. In turn, `CN(CCN)Cc1c[nH]nc1-c1cncc(Cl)c1` [Compound 19] returned an IC50 not above 100 nM. `CN(CCN)Cc1c[nH]nc1-c1ccc(N2CCOCC2)nc1` [Compound 20]: the IC50 was not above 100 nM. The molecule `CC(C)CN(C)c1ccc(-c2n[nH]cc2CN(C)CCN)cn1` [Compound 21] displayed an IC50 not above 100 nM.

With `CC(C)Oc1ccc(-c2n[nH]cc2CN(C)CCN)cn1` [Compound 22], the IC50 was not above 100 nM. For `CN(CCN)Cc1c[nH]nc1-c1ccc(N(C)Cc2ccccc2)nc1` [Compound 23], the IC50 is not above 100 nM. Consider `CCN(CC)c1ccc(-c2n[nH]cc2CN(C)CCN)cn1` [Compound 24], for which the IC50 was 101 to 1000 nM.

Turning to `CN(CCN)Cc1c[nH]nc1-c1ccc(NCc2ccccc2)nc1` [Compound 25], the IC50 was not above 100 nM.

`CC(C)CNc1ccc(-c2n[nH]cc2CN(C)CCN)cn1` [Compound 26] displayed an IC50 not above 100 nM.

As to `CN(CCN)Cc1c[nH]nc1-c1ccccn1` [Compound 27], the half-maximal inhibitory concentration (IC50) was 3010 to 10000 nM.

As for `CN(CCN)Cc1c[nH]nc1-c1ccc(C#N)nc1` [Compound 28, 5-(4-(((2-aminoethyl)(methyl)amino)methyl)-1H-pyrazol-3-yl)picolinonitrile], the IC50 is not above 100 nM. Regarding `CN(CCN)Cc1c[nH]nc1-c1cnccc1C(F)(F)F` [Compound 29], the IC50 is 1010 to 3000 nM. The molecule `CNCCN(C)Cc1c[nH]nc1-c1ccc(N(C)CCC(C)C)nc1` [Compound 30] gave a concentration for half-maximal inhibition (IC50) not above 100 nM. Then `CNCCN(C)Cc1c[nH]nc1-c1ccc(N(CC(C)C)CC(C)C)nc1` [Compound 31], with not above 100 nM; and `CNCCN(C)Cc1c[nH]nc1-c1ccc(N(C)CC(C)C)nc1` [Compound 32, N^1-((3-(6-(isobutyl(methyl)amino)pyridin-3-yl)-1H-pyrazol-4-yl)methyl)-N^1,N^2-dimethylethane-1,2-diamine], with not above 100 nM; and `CNCCN(C)Cc1c[nH]nc1-c1ccc(N(C)C(C)C)nc1` [Compound 33, N^1-((3-(6-(isopropyl(methyl)amino)pyridin-3-yl)-1H-pyrazol-4-yl)methyl)-N^1,N^2-dimethylethane-1,2-diamine], with not above 100 nM.

The molecule `CCN(CCC(C)C)c1ccc(-c2n[nH]cc2CN(C)CCNC)cn1` [Compound 34, N^1-((3-(6-(ethyl(isopentyl)amino)pyridin-3-yl)-1H-pyrazol-4-yl)methyl)-N^1,N^2-dimethylethane-1,2-diamine] displayed an IC50 not above 100 nM. In turn, `CNCCN(C)Cc1c[nH]nc1-c1ccc(OCC(C)C)nc1` [Compound 35, N^1-((3-(6-iso-butoxypyridin-3-yl)-1H-pyrazol-4-yl)methyl)-N^1,N^2-dimethylethane-1,2-diamine] gave an IC50 not above 100 nM. Molecule `CCN(CC(C)C)c1ccc(-c2n[nH]cc2CN(C)CCNC)cn1` [Compound 36] registered an IC50 not above 100 nM.

For the origin of these results see US9440950B2, “Arginine methyltransferase inhibitors and uses thereof” (Epizyme, Inc., priority 2013, dated 2016).
